Assay results: ChEMBL document CHEMBL1201862, “PubChem BioAssay data set” (2004)
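How tested: cells in 96-well plates exposed to compound for 48 hours at five concentrations. The concentration for 50% growth inhibition is given as GI50.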 Activity calls are given as the source filed them. No stated cut-off is given here; in the data, active = GI50 up to about 1.1 µM and inactive = higher.

How the values were obtained:
Experiment in all cases: DTP human tumour cell line panel, 48 h
786-0 = system: 786-0
A498 = system: A498
CCRF-CEM = system: CCRF-CEM
COLO 205 = system: COLO 205
HL-60 = system: HL-60
HT-29 = system: HT-29
KM12 = system: KM12
M14 = system: M14
Malme-3M = system: Malme-3M
NCI-H23 = system: NCI-H23
NCI-H522 = system: NCI-H522
RPMI-8226 = system: RPMI-8226
SF-295 = system: SF-295
SK-OV-3 = system: SK-OV-3
SN12C = system: SN12C
SNB-75 = system: SNB-75
TK-10 = system: TK-10
U-251 = system: U-251
UACC-62 = system: UACC-62
UO-31 = system: UO-31

Row | SMILES | GI50 (786-0) | GI50 (A498) | GI50 (CCRF-CEM) | GI50 (COLO 205) | GI50 (HL-60) | GI50 (HT-29) | GI50 (KM12) | GI50 (M14) | GI50 (Malme-3M) | GI50 (NCI-H23) | GI50 (NCI-H522) | GI50 (RPMI-8226) | GI50 (SF-295) | GI50 (SK-OV-3) | GI50 (SN12C) | GI50 (SNB-75) | GI50 (TK-10) | GI50 (U-251) | GI50 (UACC-62) | GI50 (UO-31)
1 | Nc1ccc2[nH]cc(CCC(=O)O)c2c1 | > 100 µM (inactive) | > 100 µM (inactive) | 9.48 µM (inactive) | > 100 µM (inactive) | 27.3 µM (inactive) | > 100 µM (inactive) | > 100 µM (inactive) | > 100 µM (inactive) | 28.8 µM (inactive) | > 100 µM (inactive) | > 100 µM (inactive) | > 100 µM (inactive) | > 100 µM (inactive) | > 100 µM (inactive) | > 100 µM (inactive) | 46.1 µM (inactive) | > 100 µM (inactive) | > 100 µM (inactive) | > 100 µM (inactive) | > 100 µM (inactive)
2 | Cc1cc(Cl)ccc1OCC(=O)Nc1nc(N)nc(N)n1 | > 100 µM (inactive) | > 100 µM (inactive) | > 100 µM (inactive) | > 100 µM (inactive) | > 100 µM (inactive) | > 100 µM (inactive) | > 100 µM (inactive) | > 100 µM (inactive) | > 100 µM (inactive) | > 100 µM (inactive) | > 100 µM (inactive) | > 100 µM (inactive) | > 100 µM (inactive) | > 100 µM (inactive) | > 100 µM (inactive) | > 100 µM (inactive) | > 100 µM (inactive) | > 100 µM (inactive) | > 100 µM (inactive) | 40.7 µM (inactive)
3 | O=C(Nc1cccc(O)c1)C(=O)C(C(=O)c1ccc(Cl)c(Cl)c1)C1OC(=O)c2ccccc21 (stereo not given) | 13.6 µM (inactive) | 19.5 µM (inactive) | 12.5 µM (inactive) | 15.9 µM (inactive) | 12.9 µM (inactive) | 27.4 µM (inactive) | 19.5 µM (inactive) | 20.2 µM (inactive) | 14.4 µM (inactive) | 16.6 µM (inactive) | 9.82 µM (inactive) | 16 µM (inactive) | 20.3 µM (inactive) | 12.8 µM (inactive) | 18.6 µM (inactive) | 17.8 µM (inactive) | 23.8 µM (inactive) | 8.02 µM (inactive) | 17.5 µM (inactive) | 13.7 µM (inactive)
4 | N#CC(C#N)=C1NC(=O)CC(=O)N1 | > 100 µM (inactive) | > 100 µM (inactive) | > 100 µM (inactive) | > 100 µM (inactive) | > 100 µM (inactive) | > 100 µM (inactive) | > 100 µM (inactive) | > 100 µM (inactive) | > 100 µM (inactive) | > 100 µM (inactive) | > 100 µM (inactive) | > 100 µM (inactive) | > 100 µM (inactive) | > 100 µM (inactive) | > 100 µM (inactive) | > 100 µM (inactive) | > 100 µM (inactive) | > 100 µM (inactive) | > 100 µM (inactive) | > 100 µM (inactive)
5 | O=P(O)(O)CN1CCNCCN(CP(=O)(O)O)CC1 | 23 µM (inactive) | 33.7 µM (inactive) | 23.6 µM (inactive) | 3.18 µM (inactive) | 4.21 µM (inactive) | 4.26 µM (inactive) | 28.6 µM (inactive) | 37.9 µM (inactive) | > 37.3 µM (inactive) | 54.6 µM (inactive) | 19.9 µM (inactive) | 20.4 µM (inactive) | 41.5 µM (inactive) | 23.7 µM (inactive) | > 100 µM (inactive) | > 54.5 µM (inactive) | > 49.4 µM (inactive) | > 100 µM (inactive) | 38.8 µM (inactive) | > 100 µM (inactive)
6 | Cc1c(C(=O)C/C(=N/NC(=O)C[n+]2ccccc2)C(=O)Nc2ccccc2)[n+]([O-])c2ccccc2[n+]1[O-] | > 100 µM (inactive) | > 100 µM (inactive) | > 100 µM (inactive) | > 100 µM (inactive) | > 100 µM (inactive) | > 100 µM (inactive) | > 100 µM (inactive) | > 100 µM (inactive) | > 100 µM (inactive) | > 100 µM (inactive) | > 100 µM (inactive) | > 100 µM (inactive) | > 100 µM (inactive) | > 100 µM (inactive) | > 100 µM (inactive) | > 100 µM (inactive) | > 100 µM (inactive) | > 100 µM (inactive) | > 100 µM (inactive) | > 100 µM (inactive)
7 | CCC(CO)COC(=O)/C=C/C(=O)OCC(CC)CO (stereo not given) | > 100 µM (inactive) | > 100 µM (inactive) | 27.4 µM (inactive) | > 100 µM (inactive) | 22.1 µM (inactive) | > 91 µM (inactive) | > 100 µM (inactive) | > 71.8 µM (inactive) | > 61 µM (inactive) | > 84.7 µM (inactive) | > 61.5 µM (inactive) | 33.3 µM (inactive) | > 100 µM (inactive) | > 100 µM (inactive) | > 100 µM (inactive) | 73.5 µM (inactive) | > 100 µM (inactive) | > 100 µM (inactive) | > 72.4 µM (inactive) | > 100 µM (inactive)
8 | N#Cc1cccc(Nc2ccccc2SSc2ccccc2Nc2cccc(C#N)c2)c1 | 3.91 µM (inactive) | 9.89 µM (inactive) | 2.94 µM (inactive) | > 10 µM (inactive) | 4.76 µM (inactive) | 11.4 µM (inactive) | 9.46 µM (inactive) | 7.55 µM (inactive) | 11 µM (inactive) | 11.7 µM (inactive) | 8.11 µM (inactive) | 3.93 µM (inactive) | 13.2 µM (inactive) | 13.5 µM (inactive) | 7.59 µM (inactive) | 8.59 µM (inactive) | 19.3 µM (inactive) | 5.92 µM (inactive) | 7.1 µM (inactive) | 4.97 µM (inactive)
9 | COC(=O)C1=C(C(=O)OC)N(c2ccc(OC)cc2[N+](=O)[O-])C(c2ccc(C)cc2)=CC1c1ccc(OC)cc1OC (stereo not given) | 11.9 µM (inactive) | 16 µM (inactive) | 3.86 µM (inactive) | 13.2 µM (inactive) | 3.8 µM (inactive) | 6.53 µM (inactive) | 4.27 µM (inactive) | 17.2 µM (inactive) | 22.2 µM (inactive) | 22.4 µM (inactive) | 14.1 µM (inactive) | 2.07 µM (inactive) | 29 µM (inactive) | 25.8 µM (inactive) | 13.6 µM (inactive) | 18.7 µM (inactive) | 18.5 µM (inactive) | 6.37 µM (inactive) | 25.2 µM (inactive) | 11.7 µM (inactive)
10 | C=C1CC(CCCl)(c2ccccc2)OC1=O (stereo not given) | 17.4 µM (inactive) | > 100 µM (inactive) | 20 µM (inactive) | 29 µM (inactive) | 19.8 µM (inactive) | 33 µM (inactive) | 44.7 µM (inactive) | 19.5 µM (inactive) | 23.6 µM (inactive) | > 100 µM (inactive) | 18.5 µM (inactive) | 15.8 µM (inactive) | > 100 µM (inactive) | > 100 µM (inactive) | 31.5 µM (inactive) | 22.4 µM (inactive) | > 47.5 µM (inactive) | > 59.3 µM (inactive) | 48.4 µM (inactive) | 58.3 µM (inactive)
11 | O=C(O)CC(C(=O)O)c1ccccc1[N+](=O)[O-] (stereo not given) | > 100 µM (inactive) | > 100 µM (inactive) | > 100 µM (inactive) | > 100 µM (inactive) | > 100 µM (inactive) | > 100 µM (inactive) | > 100 µM (inactive) | > 100 µM (inactive) | > 100 µM (inactive) | > 100 µM (inactive) | > 100 µM (inactive) | > 100 µM (inactive) | > 100 µM (inactive) | > 100 µM (inactive) | > 100 µM (inactive) | > 100 µM (inactive) | > 100 µM (inactive) | > 100 µM (inactive) | > 100 µM (inactive) | 2.62 µM (inactive)
12 | COc1c(OC2OC(CO)C(O)C(O)C2O)cc2c(c1OC)-c1ccc(OC)c(=O)cc1C(NC(C)=O)CC2 (stereo not given) | > 100 µM (inactive) | > 100 µM (inactive) | > 100 µM (inactive) | > 28.3 µM (inactive) | > 100 µM (inactive) | > 100 µM (inactive) | > 100 µM (inactive) | > 100 µM (inactive) | 81.7 µM (inactive) | > 100 µM (inactive) | > 100 µM (inactive) | > 100 µM (inactive) | > 87.3 µM (inactive) | > 100 µM (inactive) | > 100 µM (inactive) | 25.3 µM (inactive) | > 100 µM (inactive) | > 100 µM (inactive) | 60.1 µM (inactive) | > 100 µM (inactive)
13 | CC(=O)Nc1ccc2c3c(cc(O)c2c1)N(C(=O)CCCCCCC(=O)N1CC(CCl)c2c1cc(O)c1cc(NC(C)=O)ccc21)CC3CCl (stereo not given) | < 0.01 µM (active) | < 0.01 µM (active) | < 0.01 µM (active) | 0.0105 µM (active) | < 0.01 µM (active) | 0.0172 µM (active) | 0.0249 µM (active) | < 0.01 µM (active) | < 0.01 µM (active) | < 0.01 µM (active) | < 0.01 µM (active) | 0.059 µM (active) | < 0.01 µM (active) | 0.017 µM (active) | < 0.01 µM (active) | < 0.01 µM (active) | 0.0251 µM (active) | < 0.01 µM (active) | < 0.01 µM (active) | 0.0509 µM (active)
14 | C=C1C(=O)OC2C(C)C3C=CC(=O)[C@@]3(C)C(OC(=O)/C(C)=C/C)C1[C@@H]2OC(C)=O (stereo not given in full) | 0.231 µM (active) | 1.49 µM (inactive) | 0.22 µM (active) | 0.333 µM (active) | 0.327 µM (active) | 0.486 µM (active) | 1.46 µM (inactive) | 0.673 µM (active) | 0.221 µM (active) | 0.467 µM (active) | 0.131 µM (active) | 0.486 µM (active) | 1.43 µM (inactive) | 1.59 µM (inactive) | 0.468 µM (active) | 1.1 µM (active) | 0.452 µM (active) | 1.15 µM (inactive) | 0.344 µM (active) | 1.21 µM (inactive)
